Assays:
HNDFs = test: SA-β-gal senescence assay in HG-induced HNDFs; type: cell-based, human
Procedure: Next, the protective effects of antcins on HG-induced HNDF senescence are examined. In FIG. 2B, cells were incubated with ANA (10 μM), ANH (10 μM) and ANM (10 μM) in the presence of HG (30 mM) for 72 h. Cellular senescence is determined by SA-β-gal activity. […] After cells are co-incubated with HG and antcins (ANA, ANH and ANM) for 72 h, senescence is measured by SA-β-gal assay.
Therefore, in order to examine whether the ROS inhibitory effect may be extended to suppress HG-induced senescence, HG-induced senescenece eliminated by ANM is examined. In FIG. 4B, HNDFs are incubated with ANM (10 μM) or NAC (100 μM) in the presence or absence of HG (30 mM) for 72 h. Cellular senescence is determined by SA-β-gal assay. […] As is shown, cells are co-incubated with HG and ANM or NAC for 72 h.
Senescence-associated β-galactosidase (SA-β-gal) activity is determined in formaldehyde-fixed histochemical staining kit according to the manufacturer's instructions (Cell Signaling Technology, Danvers, Calif.). Briefly, cells are grown in 6-well plates at a density of 5×10^4 cells/well, and incubated with HG or test samples for 48 h (HUVECs) or 72 h (HNDFs). After incubation, cells are stained with SA-β-gal staining solution at pH 6.0 overnight and then the development of blue staining is observed and photographed under a bright-field microscope (Motic Electric Group, Xiamen, P.R. China).

[1] = system: SIRT-1, SIRT-3 and SIRT-6; test: RT-PCR/Q-PCR of SIRT genes in HNDFs; type: cell-based, human; details: RES, 72 h, no HG
Description: As shown in the figures, to determine whether ANM regulates HNDF senescence through a SIRT-1-mediated pathway, expression levels of SIRT genes SIRT-1, SIRT-3 and SIRT-6 are is examined.
Total RNA is extracted and subjected to Q-PCR analysis to monitor SIRT-1, SIRT-3 and SIRT-6 expression. Relative mRNA levels are normalized by β-actin mRNA. Previous studies have shown that exposure of endothelial cells to HG rapidly decreases levels of expression of SIRT genes.
Total RNA is extracted from cultured HNDFs using Trizol Reagent (Thermo Fisher Scientific). Q-PCR analysis is performed using Applied Biosystems detection instruments and software. Forward and reverse primers (10 μM), and the working solution SYBR green, is used as a PCR master mix, under the following conditions: 96° C. for 3 minutes followed by 40 cycles at 96° C. for 1 minute, 50° C. for 30 seconds and 72° C. for 90 seconds. GAPDH is used as an internal standard to control for variability in amplification because of differences in starting mRNA concentrations. The copy number of each transcript is calculated as the relative copy number normalized by GAPDH copy number.

SIRT-1, SIRT-3, SIRT-6 = test: Western blot of SIRT proteins and phos-SIRT-1 in HNDFs; type: cell-based, human; details: 72 h
Procedure: Total cell lysate is extracted and subjected to western blot analysis to monitor SIRT-1, SIRT-3, SIRT-6 protein levels.
(§1) The protein expression levels of SIRT-1, SIRT-6, p21^CIP1, SMP30, p53, FoxO and acetylation of p53 and FoxO1 are determined by western blot analysis.
To further understand the regulation of SIRT-1 by ANM, the effect of ANM on SIRT-1 activation and protein stability is examined under hyperglycemic conditions. In FIG. 7I, cells are incubated with JNK/SAPK or p38 MAPK inhibitors SP600125 (SP, 30 μM) and SB203580 (SB, 30 μM) in the presence of HG for 72 h. The protein expression levels of phos-SIRT-1 and SIRT-1 are determined by western blotting. Results are expressed as mean±S.E.M of three independent experiments. Statistical significance is set at ^ϕP<0.05 as compared to NG vs. HG and *P<0.05 as compared to HG vs. samples. Previous studies have shown that hyperphosphorylation of SIRT-1 at serine 47 (Ser47) is correlated with enhanced endothelial senescence. In addition, persistent activation of JNK1/2 by multiple factors including hyperglycemia induces extensive SIRT-1 proteasome degradation followed by phosphorylation at Ser47. […] Therefore, it is hypothesized that ANM-mediated suppression of JNK1/2 and p38 MAPK activation may have a functional role in the stability of SIRT-1 protein.
(§2) Cells are lysed by either RIPA lysis buffer or nuclear and cytoplasmic extraction reagents (Thermo Fisher Scientific). Protein concentrations are determined by Bio-Rad protein assay reagent (Bio-Rad Laboratories, Hercules, Calif.). Equal amounts of protein samples (60 μg) are separated by 7-12% SDS-PAGE and the separated proteins are transferred onto polyvinylidene […] (PVDC) membrane overnight. The transferred protein membranes are blocked with 5% non-fat dried milk for 30 min, followed by incubation with specific primary antibodies overnight, and either horseradish peroxidase-conjugated goat anti-rabbit or anti-mouse antibodies for 2 h. The blots are detected using VL Chemi-Smart 3000 (Viogene Biotek, Sunnyvale, Calif.) with the enhanced chemiluminescence (ECL) western blotting reagent (Millipore, Billerica, Mass.).

wild-type C. elegans = test: C. elegans lifespan assay; type: in vivo, Caenorhabditis elegans; details: ANM 10 μM or RES 438 μM vs control
Procedure: It has been well documented that high glucose levels decrease the life span of C. elegans by increasing ROS formation and advance glycation end-product modification of mitochondrial proteins. Therefore, it is further investigated whether ANM has a protective effect against hyperglycemia-induced oxidative stress as well as anti-aging effects. Worms are incubated with high glucose (50 mM) with or without ANM […], and controlled for life span evaluation. In FIG. 8B, effect of ANM on the life span of C. elegans under hyperglycemic condition is examined. Age synchronized L1 larvae are transfected to NGM plates which contain HG (50 mM) with or without ANM (10 μM) and worms are developed to adulthood. The survival rate is scored everyday and is expressed as a percentage of survival. […] Results are expressed as mean±S.E.M of three independent experiments. Statistical significance is set at ^ϕP<0.05 as compared to control vs. HG, *P<0.05 as compared to HG vs. HG+sample and ̂P<0.05 as compared to control vs. samples.
Control worms are treated with 0.01% DMSO. All worms are kept 20° C. to develop adulthood. After 6 days, worms are transferred to plates containing glucose are applicable. Surviving and dead animals are counted daily (starting from the first day of adulthood) until all worms had died. […] Worms suffering from internal hatch (a defect in egg-laying) and those that crawled off the NGM plate are not included in the life-span assay. During the reproductive period, adult worms are transferred to fresh NGM plates every day during the progeny production period and then every other day thereafter. Life span assay result is obtained from three independent assays.

HO-1 and NQO-1 = test: Western blot of HO-1 and NQO-1 in HUVECs; type: cell-based, human; details: ANM 10 μM or RES 5 μM + HG
Procedure: The intracellular ROS level is quantified by utilizing DCFH-DA assay. […] However, treatment of HUVECs with ANM resulted reduced ROS levels (6.1-fold), compared with HUVECs in HG that are not treated with ANM. In addition, in FIG. 9G, western blot analysis is performed to determine the protein expression levels of HO-1 and NQO-1.
as §2

p53 and FoxO1 = test: Western blot of p53 and FoxO1 acetylation/phosphorylation in HNDFs; type: cell-based, human; details: pharmacological inhibitor in the presence of HG (FIG. 4G)
Procedure: It is well known that p16^INK4A and p21^CIP1 are regulated by transcription factors p53 and FoxO1 followed by acetylation. […] In addition, p53 phosphorylation at Ser15 by their upstream kinases promotes transcriptional activation in response to DNA damage.
To further examine the phenomenon that HG-induced p53 activation is relayed by the p38 MAPK or JNK/SAPK cascade, cells are incubated with corresponding pharmacological inhibitors, SB203580, SP600125, PD98059 and LY294002 for p38MAPK, JNK/SAPK, ERK1/2 and P13K/AKT, respectively in the presence of HG.
as §1, §2

Nrf2 = test: ARE luciferase reporter assay (Nrf2 transcriptional activity) in HNDFs; type: cell-based, human; details: inhibitor 30 μM 2 h, then ANM 10 μM + HG 30 mM 6 h
Procedure: Therefore, to determine whether ANM augments Nrf2 transcriptional activity, ARE-harboring luciferase reporter assay is used. In FIG. 5E, to determine the Nrf2 transcriptional activity, HNDFs are transiently transfected with ARE promoter construct using lipofectamine and incubated with ANM (10 μM) or NAC (100 μM) in the presence or absence of HG (30 mM) for 6 h. Cell lysates are mixed with luciferase reagents and quantified using an illuminometer. Relative ARE promoter activity is calculated by dividing the relative luciferace unit (RLU) of treated cells by RLU of untreated cells (NG).
Activation of P13K/AKT and mitogen-activated protein kinases (MAPKs), including ERK1/2, JNK/SAPK and p38 MAPK, facilitates Nrf2 transcriptional activation in a variety of human cell lines. […] To elucidate the upstream signaling events involved in ANM-induced Nrf2 transcriptional activity, cells are pre-incubated with pharmacological inhibitors of P13K/AKT (LY294002), ERK1/2 (PD98059), SAPK/JNK (SP600125) and p38MAPK (SB203580) for 2 h and treated with ANM for 6 h in the presence of HG. In FIG. 5G, HNDFs are pre-incubated with AKT, ERK1/2, JNK/SAPK and p38 MAPK inhibitors, including LY294002 (LY, 30 μM), PD98059 (PD, 30 μM), SP600125 (SP, 30 μM) and SB203580 (SB, 30 μM), respectively, for 2 h and then incubated with ANM (10 μM) in the presence of HG (30 mM) for 6 h. Cytoplasmic and nuclear fractions are prepared and subjected to western blot analysis. GAPDH and histone H3 are served as internal controls for the cytoplasmic and nuclear fraction, respectively.
ARE promoter activity is measured using a dual-luciferase reporter assay system (Promega, Madison, Wis.). […] Cells are then transfected with ARE plasmid (Qiagen, Hilden, Germany) using Lipofectamine 2000 (Invitrogen) and incubated for 36 h. […] The cell lysate is prepared and incubated with luciferase agents and the relative luminescence intensity is quantified using a spectrophotometer (Hidex Oy, Turku, Finland).

Row | Structure (SMILES) | SA-β-gal activity, SIRT-1 siRNA transfected cells (HNDFs; ANM 10 μM or RES + HG, 72 h) | SIRT-6 level (RT-PCR) [1] | HG-induced SIRT-1 phosphorylation at Ser47 (SIRT-1, SIRT-3, SIRT-6; ANM or RES + HG) | life span of C. elegans under normal condition (wild-type C. elegans) | HO-1 expression in HUVECs in HG (HO-1 and NQO-1) | HG-induced SA-β-gal activity, kinase inhibitors (HNDFs; inhibitor 30 μM + HG 30 mM, 72 h (FIG. 4H)) | HG-induced p16^INK4A expression and p53 phosphorylation, kinase inhibitors (p53 and FoxO1) | ANM-induced ARE luciferase activity after inhibitor pretreatment (Nrf2) | SIRT-1 phosphorylation and reduction in SIRT-1, kinase inhibitors (SIRT-1, SIRT-3, SIRT-6; inhibitor 30 μM + HG)
1 | Oc1ccc(C=Cc2cc(O)cc(O)c2)cc1 [RES, resveratrol, reference compound] | remains partially elevated | remarkable increase | significantly attenuates | highly comparable | significantly increase | – | – | – | –
2 | C[S+]([O-])c1ccc(-c2nc(-c3ccncc3)c(-c3ccc(F)cc3)[nH]2)cc1 (stereo not drawn) [SB203580, reference compound] | – | – | – | – | – | barely observed | reduced | partially or barely inhibits | inhibits

From US20180318199A1, “Pharmaceutical Composition Having Anti-Aging Properties against High-Glucose” (TAIWAN LEADER BIOTECH CORP., priority 2017, published 2018)
